Results from ChEMBL document CHEMBL4477238, “Ligand binding cooperativity: Bioisosteric replacement of CO with SO2 among thrombin inhibitors” (Bioorg Med Chem Lett, 2016).

target: Prothrombin (Homo sapiens, UniProt P00734); experiment: Inhibition of human alpha-thrombin using chromogenic substrate Pefachrome tPa measured every second for 20 mins by spectrophotometry

In order of falling Ki:
1. CCS(=O)(=O)N1CCC[C@H]1C(=O)NCc1ccc(C(=N)N)cc1  117 µM
2. CCCS(=O)(=O)N1CCC[C@H]1C(=O)NCc1ccc(C(=N)N)cc1  12 µM
3. CC(C)CC(=O)N1CCC[C@H]1C(=O)NCc1ccc(C(=N)N)cc1  4 µM
4. CC(C)CS(=O)(=O)N1CCC[C@H]1C(=O)NCc1ccc(C(=N)N)cc1  3.4 µM
5. CC(C)CCS(=O)(=O)N1CCC[C@H]1C(=O)NCc1ccc(C(=N)N)cc1  2.7 µM
6. N=C(N)c1ccc(CNC(=O)[C@@H]2CCCN2S(=O)(=O)Cc2ccccc2)cc1  2.5 µM
7. N=C(N)c1ccc(CNC(=O)[C@@H]2CCCN2C(=O)Cc2ccccc2)cc1  0.2 µM
